Laboratory results as given in ChEMBL document CHEMBL4342489, “Structure-Activity Relationship Evaluation of Wasp Toxin β-PMTX Leads to Analogs with Superior Activity for Human Neuronal Sodium Channels” (ACS Med Chem Lett, 2020).
Positions of bridges follow the written chain, without caps; N, C: chain ends. Non-standard residues stand in square brackets, D forms with d. Residues, ends and D or L forms follow the SMILES beside them. Phe(4-Cl) = N[C@@H](Cc1ccc(Cl)cc1)C(=O)O; 2Nal = N[C@@H](Cc1ccc2ccccc2c1)C(=O)O

Experiments:
Assay type in all cases: cell-based
[1] = target: Sodium channel protein type 1 subunit alpha (Homo sapiens) (UniProt P35498); test: Activation of human Nav1.1 expressed in HEK293 cells assessed as ratio of compound activation AUC to baseline activation AUC at 0.12 uM at -120 mV holding potential by Qpatch assay
[2] = target: Sodium channel protein type 1 subunit alpha (Homo sapiens) (UniProt P35498); test: Activation of human Nav1.1 expressed in HEK293 cells assessed as ratio of compound activation AUC to baseline activation AUC at 0.37 uM at -120 mV holding potential by Qpatch assay
[3] = target: Sodium channel protein type 1 subunit alpha (Homo sapiens) (UniProt P35498); test: Activation of human Nav1.1 expressed in HEK293 cells assessed as ratio of compound activation AUC to baseline activation AUC at 1.11 uM at -120 mV holding potential by Qpatch assay
[4] = target: Sodium channel protein type 1 subunit alpha (Homo sapiens) (UniProt P35498); test: Activation of human Nav1.1 expressed in HEK293 cells assessed as ratio of compound activation AUC to baseline activation AUC at 3.3 uM at -120 mV holding potential by Qpatch assay
[5] = target: Sodium channel protein type 2 subunit alpha (Homo sapiens) (UniProt Q99250); test: Activation of human Nav1.2 expressed in CHOK1 cells assessed as ratio of compound activation AUC to baseline activation AUC at 3.3 uM at -120 mV holding potential by Qpatch assay
[6] = target: Sodium channel protein type 3 subunit alpha (Homo sapiens) (UniProt Q9NY46); test: Activation of human Nav1.3 expressed in CHOK1 cells assessed as ratio of compound activation AUC to baseline activation AUC at 3.3 uM at -120 mV holding potential by Qpatch assay
Sodium channel protein type 3 subunit alpha (Homo sapiens), sequence (Q9NY46 whole entry, looked up): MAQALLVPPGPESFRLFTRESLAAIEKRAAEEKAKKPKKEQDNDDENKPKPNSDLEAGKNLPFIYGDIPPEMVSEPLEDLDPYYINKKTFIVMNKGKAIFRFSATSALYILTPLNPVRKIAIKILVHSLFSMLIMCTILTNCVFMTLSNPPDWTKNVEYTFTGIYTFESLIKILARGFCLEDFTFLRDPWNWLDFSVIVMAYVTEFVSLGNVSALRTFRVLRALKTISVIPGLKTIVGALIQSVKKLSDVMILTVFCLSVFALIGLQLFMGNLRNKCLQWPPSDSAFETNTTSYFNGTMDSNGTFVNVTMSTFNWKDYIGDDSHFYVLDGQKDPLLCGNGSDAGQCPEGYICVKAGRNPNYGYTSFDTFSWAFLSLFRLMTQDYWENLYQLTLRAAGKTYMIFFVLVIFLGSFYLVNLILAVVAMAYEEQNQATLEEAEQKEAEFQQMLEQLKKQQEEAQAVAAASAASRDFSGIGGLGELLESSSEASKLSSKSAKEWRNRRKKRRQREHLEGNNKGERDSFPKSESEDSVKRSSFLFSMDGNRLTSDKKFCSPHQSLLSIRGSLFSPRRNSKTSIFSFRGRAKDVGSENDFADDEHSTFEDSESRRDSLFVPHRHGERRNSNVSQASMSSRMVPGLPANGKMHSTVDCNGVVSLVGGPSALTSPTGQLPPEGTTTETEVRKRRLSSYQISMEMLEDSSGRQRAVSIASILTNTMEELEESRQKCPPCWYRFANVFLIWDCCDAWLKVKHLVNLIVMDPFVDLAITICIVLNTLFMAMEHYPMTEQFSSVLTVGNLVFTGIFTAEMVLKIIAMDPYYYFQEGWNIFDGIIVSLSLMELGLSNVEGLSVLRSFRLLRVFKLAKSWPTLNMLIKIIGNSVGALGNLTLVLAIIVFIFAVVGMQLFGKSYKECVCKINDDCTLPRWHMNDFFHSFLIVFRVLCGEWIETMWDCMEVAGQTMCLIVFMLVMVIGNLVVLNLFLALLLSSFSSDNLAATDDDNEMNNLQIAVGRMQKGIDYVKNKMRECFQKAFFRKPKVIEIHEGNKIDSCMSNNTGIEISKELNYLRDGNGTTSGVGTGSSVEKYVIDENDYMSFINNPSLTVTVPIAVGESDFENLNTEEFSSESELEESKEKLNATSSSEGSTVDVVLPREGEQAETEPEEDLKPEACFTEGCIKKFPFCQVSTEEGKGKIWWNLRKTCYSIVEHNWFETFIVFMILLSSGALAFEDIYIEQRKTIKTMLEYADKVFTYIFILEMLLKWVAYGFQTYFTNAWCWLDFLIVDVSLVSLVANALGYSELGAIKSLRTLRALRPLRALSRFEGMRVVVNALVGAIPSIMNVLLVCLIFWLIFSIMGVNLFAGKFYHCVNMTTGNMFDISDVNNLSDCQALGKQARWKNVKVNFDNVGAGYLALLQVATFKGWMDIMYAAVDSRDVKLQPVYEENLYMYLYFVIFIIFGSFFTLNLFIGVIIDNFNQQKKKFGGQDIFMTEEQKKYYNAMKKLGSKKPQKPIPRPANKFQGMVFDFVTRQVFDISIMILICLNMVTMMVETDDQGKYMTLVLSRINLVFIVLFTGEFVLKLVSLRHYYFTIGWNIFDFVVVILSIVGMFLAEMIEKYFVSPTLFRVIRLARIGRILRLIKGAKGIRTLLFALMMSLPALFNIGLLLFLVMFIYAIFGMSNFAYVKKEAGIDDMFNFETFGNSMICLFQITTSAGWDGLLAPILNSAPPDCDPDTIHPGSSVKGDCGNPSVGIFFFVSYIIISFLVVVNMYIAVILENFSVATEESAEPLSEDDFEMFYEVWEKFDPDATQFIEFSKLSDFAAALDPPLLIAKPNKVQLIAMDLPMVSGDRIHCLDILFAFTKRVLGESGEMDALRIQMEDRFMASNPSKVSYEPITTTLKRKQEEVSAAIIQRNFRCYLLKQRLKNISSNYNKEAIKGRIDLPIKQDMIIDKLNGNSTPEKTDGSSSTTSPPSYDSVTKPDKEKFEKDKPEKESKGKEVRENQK

[7] = target: Sodium channel protein type 4 subunit alpha (Homo sapiens) (UniProt P35499); test: Activation of human Nav1.4 expressed in HEK293 cells assessed as ratio of compound activation AUC to baseline activation AUC at 3.3 uM at -120 mV holding potential by Qpatch assay
[8] = target: Sodium channel protein type 5 subunit alpha (Homo sapiens, UniProt Q14524); test: Activation of human Nav1.5 expressed in HEK293 cells assessed as ratio of compound activation AUC to baseline activation AUC at 3.3 uM at -120 mV holding potential by Qpatch assay; conditions: hek293, 3.3 µM
Sodium channel protein type 5 subunit alpha, sequence (Q14524 whole entry): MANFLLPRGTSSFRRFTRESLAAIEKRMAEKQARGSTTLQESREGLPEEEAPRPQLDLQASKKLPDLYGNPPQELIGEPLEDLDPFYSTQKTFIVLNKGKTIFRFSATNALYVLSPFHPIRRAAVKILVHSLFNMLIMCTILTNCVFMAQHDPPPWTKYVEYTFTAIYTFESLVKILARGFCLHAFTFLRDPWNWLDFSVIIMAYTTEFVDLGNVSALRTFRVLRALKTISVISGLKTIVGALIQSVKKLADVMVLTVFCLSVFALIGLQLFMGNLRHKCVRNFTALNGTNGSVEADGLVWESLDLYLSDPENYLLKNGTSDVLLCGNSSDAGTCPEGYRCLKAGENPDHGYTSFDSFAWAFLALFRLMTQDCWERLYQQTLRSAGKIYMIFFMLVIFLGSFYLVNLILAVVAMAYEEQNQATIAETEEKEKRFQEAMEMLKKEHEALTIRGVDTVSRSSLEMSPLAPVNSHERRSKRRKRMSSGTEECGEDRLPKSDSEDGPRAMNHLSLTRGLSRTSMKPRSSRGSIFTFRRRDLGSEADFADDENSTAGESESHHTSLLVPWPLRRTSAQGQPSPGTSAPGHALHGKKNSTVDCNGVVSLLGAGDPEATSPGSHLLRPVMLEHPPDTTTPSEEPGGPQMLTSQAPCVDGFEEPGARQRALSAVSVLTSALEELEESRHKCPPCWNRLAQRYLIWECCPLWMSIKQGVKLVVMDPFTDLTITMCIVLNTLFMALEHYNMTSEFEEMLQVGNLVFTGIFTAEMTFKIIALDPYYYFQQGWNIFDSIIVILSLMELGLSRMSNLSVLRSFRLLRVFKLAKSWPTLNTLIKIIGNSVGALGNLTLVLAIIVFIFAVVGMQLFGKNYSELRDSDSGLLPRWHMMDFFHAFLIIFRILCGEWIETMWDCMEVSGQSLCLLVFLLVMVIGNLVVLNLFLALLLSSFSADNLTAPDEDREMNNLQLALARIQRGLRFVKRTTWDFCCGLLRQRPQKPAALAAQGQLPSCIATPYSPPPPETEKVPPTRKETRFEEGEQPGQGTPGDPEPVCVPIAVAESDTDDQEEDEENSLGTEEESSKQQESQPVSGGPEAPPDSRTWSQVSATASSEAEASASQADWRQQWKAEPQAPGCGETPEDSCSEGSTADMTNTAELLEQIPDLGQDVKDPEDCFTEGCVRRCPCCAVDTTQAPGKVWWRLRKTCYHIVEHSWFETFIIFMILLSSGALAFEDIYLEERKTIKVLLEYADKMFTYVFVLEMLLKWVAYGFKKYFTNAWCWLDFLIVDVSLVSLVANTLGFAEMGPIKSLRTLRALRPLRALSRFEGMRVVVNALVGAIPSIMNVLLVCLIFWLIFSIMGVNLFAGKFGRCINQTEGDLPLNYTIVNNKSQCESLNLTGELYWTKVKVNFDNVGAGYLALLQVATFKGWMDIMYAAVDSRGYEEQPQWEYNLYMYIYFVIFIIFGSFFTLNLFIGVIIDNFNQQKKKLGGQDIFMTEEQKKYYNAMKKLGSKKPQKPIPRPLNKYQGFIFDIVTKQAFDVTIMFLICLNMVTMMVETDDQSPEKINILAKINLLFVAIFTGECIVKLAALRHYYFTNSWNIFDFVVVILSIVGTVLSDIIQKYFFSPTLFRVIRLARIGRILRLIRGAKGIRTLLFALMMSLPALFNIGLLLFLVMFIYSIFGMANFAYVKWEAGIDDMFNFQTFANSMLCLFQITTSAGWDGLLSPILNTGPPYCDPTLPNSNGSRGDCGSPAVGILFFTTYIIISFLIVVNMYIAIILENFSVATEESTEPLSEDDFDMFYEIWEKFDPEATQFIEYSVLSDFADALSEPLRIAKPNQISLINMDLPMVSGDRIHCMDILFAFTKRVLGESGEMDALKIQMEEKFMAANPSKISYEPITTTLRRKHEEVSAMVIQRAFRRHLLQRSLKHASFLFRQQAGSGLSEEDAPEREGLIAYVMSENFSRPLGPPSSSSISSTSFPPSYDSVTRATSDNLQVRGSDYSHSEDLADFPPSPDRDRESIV

[9] = target: Sodium channel protein type 8 subunit alpha (Homo sapiens) (UniProt Q9UQD0); test: Activation of human Nav1.6 expressed in HEK293 cells assessed as ratio of compound activation AUC to baseline activation AUC at 3.3 uM at -120 mV holding potential by Qpatch assay
[10] = target: Sodium channel protein type 9 subunit alpha (Homo sapiens) (UniProt Q15858); test: Activation of human Nav1.7 expressed in HEK293 cells assessed as ratio of compound activation AUC to baseline activation AUC at 3.3 uM at -120 mV holding potential by Qpatch assay

SMILES | Ratio AUC [1] | Ratio AUC [2] | Ratio AUC [3] | Ratio AUC [4] | Ratio AUC [5] | Ratio AUC [6] | Ratio AUC [7] | Ratio AUC [8] | Ratio AUC [9] | Ratio AUC [10]
CC[C@H](C)[C@H](NC(=O)[C@@H](N)CCCNC(=N)N)C(=O)N[C@@H](CCCCN)C(=O)N[C@H](C(=O)N1CCC[C@@H]1C(=O)N[C@@H](CC(C)C)C(=O)N[C@@H](Cc1ccccc1)C(=O)N[C@@H](CC(=O)O)C(=O)N[C@@H](CCC(N)=O)C(=O)N[C@@H](CC(C)C)C(=O)N[C@@H](CO)C(=O)N[C@@H](CCCNC(=N)N)C(=O)N[C@@H](CC(C)C)C(N)=O)[C@@H](C)CC | 1 | 1.1 | 1.1 | 1.1 | – | – | – | – | – | –
CC[C@H](C)[C@H](NC(=O)[C@H](CCCCN)NC(=O)[C@@H](NC(=O)[C@@H](N)CCCNC(=N)N)[C@@H](C)CC)C(=O)N[C@H](C)C(=O)N[C@@H](CC(C)C)C(=O)N[C@@H](Cc1ccccc1)C(=O)N[C@@H](CC(=O)O)C(=O)N[C@@H](CCC(N)=O)C(=O)N[C@@H](CC(C)C)C(=O)N[C@@H](CO)C(=O)N[C@@H](CCCNC(=N)N)C(=O)N[C@@H](CC(C)C)C(N)=O | 0.1 | 0.1 | 1 | 1.1 | – | – | – | – | – | –
CC[C@H](C)[C@@H]1NC(=O)[C@H](CCCCN)NC(=O)[C@H]([C@@H](C)CC)NC(=O)[C@@H](N)CSSC[C@@H](C(=O)N[C@@H](CCC(N)=O)C(=O)N[C@@H](CC(C)C)C(=O)N[C@@H](CO)C(=O)N[C@@H](CCCNC(=N)N)C(=O)N[C@@H](CC(C)C)C(N)=O)NC(=O)[C@H](Cc2ccccc2)NC(=O)[C@H](CC(C)C)NC(=O)CNC1=O (H-CIKIGLFCQLSRL-NH2; disulfide 1-8) | 1 | 1.1 | 1 | 1.1 | – | – | – | – | – | –
CC[C@H](C)[C@H](NC(=O)[C@H](CCCCN)NC(=O)[C@@H](NC(=O)[C@@H](N)CC(=O)O)[C@@H](C)CC)C(=O)NCC(=O)N[C@@H](CC(C)C)C(=O)N[C@@H](Cc1ccccc1)C(=O)N[C@@H](CCCNC(=N)N)C(=O)N[C@@H](CCC(N)=O)C(=O)N[C@@H](CC(C)C)C(=O)N[C@@H](CO)C(=O)N[C@@H](CCCNC(=N)N)C(=O)N[C@@H](CC(C)C)C(N)=O (H-DIKIGLFRQLSRL-NH2) | 1 | 1.1 | 1.1 | 1.1 | – | – | – | – | – | –
CC[C@H](C)[C@@H]1NC(=O)[C@@H](NC(=O)[C@@H](NC(=O)[C@@H](N)CCCNC(=N)N)[C@@H](C)CC)CSSC[C@@H](C(=O)N[C@@H](CCC(N)=O)C(=O)N[C@@H](CC(C)C)C(=O)N[C@@H](CO)C(=O)N[C@@H](CCCNC(=N)N)C(=O)N[C@@H](CC(C)C)C(N)=O)NC(=O)[C@H](Cc2ccccc2)NC(=O)[C@H](CC(C)C)NC(=O)CNC1=O (H-RICIGLFCQLSRL-NH2; disulfide 3-8) | 1.1 | 0.9 | 0.9 | 1 | – | – | – | – | – | –
CC[C@H](C)[C@H](NC(=O)[C@H](CC(=O)O)NC(=O)[C@@H](NC(=O)[C@@H](N)CCCNC(=N)N)[C@@H](C)CC)C(=O)NCC(=O)N[C@@H](CC(C)C)C(=O)N[C@@H](Cc1ccccc1)C(=O)N[C@@H](CCCCN)C(=O)N[C@@H](CCC(N)=O)C(=O)N[C@@H](CC(C)C)C(=O)N[C@@H](CO)C(=O)N[C@@H](CCCNC(=N)N)C(=O)N[C@@H](CC(C)C)C(N)=O (H-RIDIGLFKQLSRL-NH2) | 1.1 | 1.1 | 1.1 | 1.1 | – | – | – | – | – | –
CC[C@H](C)[C@H](NC(=O)[C@H](CCCCN)NC(=O)[C@@H](NC(=O)[C@@H](N)CCCNC(=N)N)[C@@H](C)CC)C(=O)NCC(=O)N[C@@H](CC(C)C)C(=O)N[C@@H](Cc1c[nH]c2ccccc12)C(=O)N[C@@H](CC(=O)O)C(=O)N[C@@H](CCC(N)=O)C(=O)N[C@@H](CC(C)C)C(=O)N[C@@H](CO)C(=O)N[C@@H](CCCNC(=N)N)C(=O)N[C@@H](CC(C)C)C(N)=O (H-RIKIGLWDQLSRL-NH2) | 1 | 0.9 | 0.9 | 1 | – | – | – | – | – | –
CC[C@H](C)[C@H](NC(=O)[C@H](CCCCN)NC(=O)[C@@H](NC(=O)[C@@H](N)CCCNC(=N)N)[C@@H](C)CC)C(=O)NCC(=O)N[C@@H](CC(C)C)C(=O)N[C@@H](Cc1ccc2ccccc2c1)C(=O)N[C@@H](CC(=O)O)C(=O)N[C@@H](CCC(N)=O)C(=O)N[C@@H](CC(C)C)C(=O)N[C@@H](CO)C(=O)N[C@@H](CCCNC(=N)N)C(=O)N[C@@H](CC(C)C)C(N)=O (H-RIKIGL[2Nal]DQLSRL-NH2) | 1.3 | 2.1 | 5 | 10.7 | 2.4 | 1.9 | 1.6 | 4 | 6.7 | 4
CC[C@H](C)[C@H](NC(=O)[C@H](CCCNC(=N)N)NC(=O)[C@@H](NC(=O)[C@@H](N)CCCNC(=N)N)[C@@H](C)CC)C(=O)NCC(=O)N[C@@H](CC(C)C)C(=O)N[C@@H](Cc1ccccc1)C(=O)N[C@@H](CC(=O)O)C(=O)N[C@@H](CCC(N)=O)C(=O)N[C@@H](CC(C)C)C(=O)N[C@@H](Cc1ccccc1)C(=O)N[C@@H](CCCNC(=N)N)C(=O)N[C@@H](CC(C)C)C(N)=O (H-RIRIGLFDQLFRL-NH2) | 1 | 1.1 | 1.6 | 2.7 | – | – | – | – | – | –
CC[C@H](C)[C@H](NC(=O)[C@H](CCCNC(=N)N)NC(=O)[C@@H](NC(=O)[C@@H](N)CCCNC(=N)N)[C@@H](C)CC)C(=O)NCC(=O)N[C@@H](CC(C)C)C(=O)N[C@@H](Cc1ccccc1)C(=O)N[C@@H](CC(=O)O)C(=O)N[C@@H](CCC(N)=O)C(=O)N[C@@H](CC(C)C)C(=O)N[C@@H](CC(C)C)C(=O)N[C@@H](CCCNC(=N)N)C(=O)N[C@@H](CC(C)C)C(N)=O (H-RIRIGLFDQLLRL-NH2) | 1.1 | 1.6 | 2.9 | 5.8 | – | – | – | – | – | –
CC[C@H](C)[C@H](NC(=O)[C@H](CCCNC(=N)N)NC(=O)[C@@H](NC(=O)[C@@H](N)CCCNC(=N)N)[C@@H](C)CC)C(=O)NCC(=O)N[C@@H](CC(C)C)C(=O)N[C@@H](Cc1ccccc1)C(=O)N[C@@H](CC(=O)O)C(=O)N[C@@H](CCC(N)=O)C(=O)N[C@@H](CC(C)C)C(=O)N[C@@H](CO)C(=O)N[C@@H](CCCNC(=N)N)C(=O)N[C@@H](CC(C)C)C(N)=O (H-RIRIGLFDQLSRL-NH2) | 1 | 1.1 | 1.3 | 2 | – | – | – | – | – | –
CC[C@H](C)[C@H](NC(=O)[C@H](CCCNC(=N)N)NC(=O)[C@@H](NC(=O)[C@@H](N)CCCNC(=N)N)[C@@H](C)CC)C(=O)NCC(=O)N[C@@H](CC(C)C)C(=O)N[C@@H](Cc1ccccc1)C(=O)N[C@@H](CC(=O)O)C(=O)N[C@@H](CCC(N)=O)C(=O)N[C@@H](CC(C)C)C(=O)N[C@@H](Cc1c[nH]c2ccccc12)C(=O)N[C@@H](CCCNC(=N)N)C(=O)N[C@@H](CC(C)C)C(N)=O (H-RIRIGLFDQLWRL-NH2) | 1.2 | 1.6 | 2.8 | 4.3 | – | – | – | – | – | –
CC[C@H](C)[C@H](NC(=O)[C@H](CCCNC(=N)N)NC(=O)[C@@H](NC(=O)[C@@H](N)CCCNC(=N)N)[C@@H](C)CC)C(=O)NCC(=O)N[C@@H](CC(C)C)C(=O)N[C@@H](Cc1ccccc1)C(=O)N[C@@H](CC(=O)O)C(=O)N[C@@H](CCC(N)=O)C(=O)N[C@@H](CC(C)C)C(=O)N[C@@H](Cc1ccc(O)cc1)C(=O)N[C@@H](CCCNC(=N)N)C(=O)N[C@@H](CC(C)C)C(N)=O (H-RIRIGLFDQLYRL-NH2) | 1 | 1.1 | 1.5 | 2 | – | – | – | – | – | –
CC[C@H](C)[C@H](NC(=O)[C@H](CCCNC(=N)N)NC(=O)[C@@H](NC(=O)[C@@H](N)CCCNC(=N)N)[C@@H](C)CC)C(=O)NCC(=O)N[C@@H](CC(C)C)C(=O)N[C@@H](Cc1ccccc1)C(=O)N[C@@H](CC(=O)O)C(=O)N[C@@H](CCC(N)=O)C(=O)N[C@@H](CC(C)C)C(=O)N[C@@H](Cc1ccc(Cl)cc1)C(=O)N[C@@H](CCCNC(=N)N)C(=O)N[C@@H](CC(C)C)C(N)=O (H-RIRIGLFDQL[Phe(4-Cl)]RL-NH2) | 1.1 | 1.2 | 1.8 | 3.5 | – | – | – | – | – | –
CC[C@H](C)[C@H](NC(=O)[C@H](CCCCN)NC(=O)[C@H](CC(C)C)NC(=O)[C@@H](N)CCCNC(=N)N)C(=O)NCC(=O)N[C@@H](CC(C)C)C(=O)N[C@@H](Cc1ccccc1)C(=O)N[C@@H](CC(=O)O)C(=O)N[C@@H](CCC(N)=O)C(=O)N[C@@H](CC(C)C)C(=O)N[C@@H](CO)C(=O)N[C@@H](CCCNC(=N)N)C(=O)N[C@@H](CC(C)C)C(N)=O (H-RLKIGLFDQLSRL-NH2) | 1 | 1 | 1 | 1 | – | – | – | – | – | –
